Measured values taken from US20250195484A1, “CEREBLON LIGANDS AND USES THEREOF” (priority 2022, published 2025).

How the values were obtained:
androgen receptor (AR) = biological target: T1, androgen receptor (AR) (Homo sapiens, UniProt P10275); assay: Androgen receptor degradation, western blot; assay type: cell-based; conditions: AR degradation potency, cell line not stated
T1 construct: endogenous in cells
T1 sequence (P10275 1-920): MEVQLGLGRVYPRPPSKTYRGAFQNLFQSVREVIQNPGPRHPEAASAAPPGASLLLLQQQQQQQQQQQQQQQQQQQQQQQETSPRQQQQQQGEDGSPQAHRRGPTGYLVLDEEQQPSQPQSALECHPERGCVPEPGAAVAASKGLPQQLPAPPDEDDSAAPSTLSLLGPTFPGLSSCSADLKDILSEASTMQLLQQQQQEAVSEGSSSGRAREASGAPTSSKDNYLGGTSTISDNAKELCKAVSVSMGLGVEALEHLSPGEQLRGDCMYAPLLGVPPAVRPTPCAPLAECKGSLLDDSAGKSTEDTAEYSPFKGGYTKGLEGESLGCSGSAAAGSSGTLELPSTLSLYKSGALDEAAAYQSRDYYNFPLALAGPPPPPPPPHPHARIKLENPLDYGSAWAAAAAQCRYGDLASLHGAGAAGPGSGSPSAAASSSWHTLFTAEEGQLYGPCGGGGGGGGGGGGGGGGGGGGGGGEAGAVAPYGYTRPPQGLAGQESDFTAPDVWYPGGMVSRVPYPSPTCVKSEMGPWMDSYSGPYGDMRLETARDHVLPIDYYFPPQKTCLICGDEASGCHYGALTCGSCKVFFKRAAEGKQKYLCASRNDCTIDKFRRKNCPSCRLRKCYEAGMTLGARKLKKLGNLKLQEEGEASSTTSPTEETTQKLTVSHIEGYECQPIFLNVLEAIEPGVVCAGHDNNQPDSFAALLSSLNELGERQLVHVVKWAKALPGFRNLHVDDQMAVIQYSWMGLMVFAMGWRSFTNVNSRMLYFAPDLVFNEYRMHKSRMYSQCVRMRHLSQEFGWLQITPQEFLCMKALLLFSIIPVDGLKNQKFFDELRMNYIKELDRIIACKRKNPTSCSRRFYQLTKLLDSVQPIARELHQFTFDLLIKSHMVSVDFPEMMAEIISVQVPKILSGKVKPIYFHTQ
Experimental: Western blot analysis was performed essentially as described previously. The cells treated with indicated compounds were lysed in Radioimmunoprecipitation Assay Protein Lysis and Extraction Buffer (25 mmol/L Tris.HCl, pH 7.6, 150 mmol/L NaCl, 1% Nonidet P-40, 1% sodium deoxycholate, and 0.1% sodium dodecyl sulfate) containing proteinase inhibitor cocktail (Roche Diagnostics, Mannheim, Germany). Equal amounts of total protein were electrophoresed through 10% SDS-polyacrylamide gels after determination of protein concentration by BCA assay (Fisher Scientific, Pittsburgh, PA). The separated protein bands were transferred onto PVDF membranes (GE Healthcare Life Sciences, Marlborough, MA) and blotted against different antibodies, as indicated. The blots were scanned, and the band intensities were quantified using GelQuant.NET software provided by biochemlabsolutions.com. The relative mean intensity of target proteins was expressed after normalization to the intensity of glyceraldehyde-3-phosphate dehydrogenase bands.

BRD9 = biological target: T2, BRD9 (Homo sapiens, UniProt Q9H8M2); assay: BRD9 HiBiT assay for protein degradation (HEK293 CRISPR knock-in); assay type: cell-based; conditions: for Dmax: HEK293, read-out: BRD9 HEK293 HiBit Dmax; for DC50: HEK293 CRISPR knock-in cells, 6 hrs
T2 construct: endogenous in cells; host or cells: HEK293 (CRISPR HiBiT knock-in)
T2 sequence (Q9H8M2 whole entry): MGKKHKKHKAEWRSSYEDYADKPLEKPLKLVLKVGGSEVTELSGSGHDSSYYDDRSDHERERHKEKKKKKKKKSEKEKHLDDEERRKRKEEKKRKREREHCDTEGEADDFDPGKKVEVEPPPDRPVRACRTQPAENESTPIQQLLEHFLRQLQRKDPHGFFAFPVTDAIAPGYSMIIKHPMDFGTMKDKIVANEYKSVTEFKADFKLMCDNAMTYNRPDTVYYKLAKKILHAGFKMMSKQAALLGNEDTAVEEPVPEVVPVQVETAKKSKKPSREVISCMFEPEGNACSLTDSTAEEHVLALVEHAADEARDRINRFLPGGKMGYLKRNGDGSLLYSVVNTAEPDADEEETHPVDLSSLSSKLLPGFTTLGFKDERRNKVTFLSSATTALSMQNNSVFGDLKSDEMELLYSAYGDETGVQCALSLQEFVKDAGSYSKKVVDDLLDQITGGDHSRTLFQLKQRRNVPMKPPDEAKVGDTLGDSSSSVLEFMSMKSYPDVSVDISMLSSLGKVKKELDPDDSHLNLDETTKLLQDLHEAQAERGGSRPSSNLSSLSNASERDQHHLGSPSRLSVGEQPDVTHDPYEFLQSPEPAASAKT
Experimental: HiBiT Assay for protein degradation:
The HiBit assay was performed using engineered HEK293 CRISPR knock-in cell utilizing the Nano-Glo HiBiT Lytic Detection System from Promega, Cat #N3040. Compounds were transferred, 25 nL DMSO or test compounds (final DMSO @ 0.1%) to intermediate plates (Corning3570) using ECHO550. Cells were seeded onto compounds at 2000 cells/25 μL/well and incubated for 6 hrs in tissue culture incubator at 37° C. and 5% CO2. The LgBiT Protein was diluted at 1:100 and the Nano-Glo® HiBiT Lytic Substrate 1:50 into an appropriate volume of room temperature using the Nano-Glo® HiBiT Lytic Buffer. At end of compound incubation time 15 ul of the detection reagent was added to each well (without LgBiT for negative control wells) using the Thermo Scientific multidrop combi. The plate was shaken for 10 mins at RT using Combi. After brief centrifugation (2000 rpm 1 mins), plate was read on Envision (Ultrasensitive luminescence model).

[1] = biological target: GST-tagged wild-type human CRBN protein (Homo sapiens, UniProt Q96SW2); assay: biochemical
Sequence of GST-tagged wild-type human CRBN protein (Q96SW2 whole entry): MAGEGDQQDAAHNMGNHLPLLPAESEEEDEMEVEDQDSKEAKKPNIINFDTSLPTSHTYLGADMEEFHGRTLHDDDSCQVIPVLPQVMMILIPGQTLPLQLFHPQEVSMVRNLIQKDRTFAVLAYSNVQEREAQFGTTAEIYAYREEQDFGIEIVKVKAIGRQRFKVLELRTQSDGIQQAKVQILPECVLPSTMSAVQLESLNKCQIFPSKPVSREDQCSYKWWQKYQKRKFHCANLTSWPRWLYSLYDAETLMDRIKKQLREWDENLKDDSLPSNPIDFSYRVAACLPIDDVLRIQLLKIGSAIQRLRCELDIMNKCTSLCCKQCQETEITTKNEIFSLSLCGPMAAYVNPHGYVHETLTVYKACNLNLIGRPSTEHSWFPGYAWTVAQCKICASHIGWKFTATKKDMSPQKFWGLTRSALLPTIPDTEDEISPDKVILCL
Experimental: The binding to cereblon (CRBN) was determined using the Cereblon Binding Kit (Cisbio, #64BDCRBNPEG) following the manufacturer's instruction. Briefly, serially diluted compounds were incubated with GST-tagged wild-type human CRBN protein, XL665-labelled Thalidomide and Europium Cryptate labelled GST antibody at room temperature for about 3 hours.

SMILES: C[C@H]1CC2(CCN(c3ccc(C(=O)N4CCC(CN5CCC6(CC5)COc5c6ccc6c5CN([C@H]5CCC(=O)NC5=O)C6=O)CC4)cc3)CC2)CN1c1ccc(C#N)c(Cl)c1 [ARD-1, 2-chloro-4-((S)-8-(4-(4-((7-((S)-2,6-dioxopiperidin-3-yl)-6-oxo-7,8-dihydro-2H,6H-spiro[furo[2,3-e]isoindole-3,4′-piperidin]-1′-yl)methyl)piperidine-1-carbonyl)phenyl)-3-methyl-2,8-diazaspiro[4.5]decan-2-yl)benzonitrile]
- Dmax (androgen receptor (AR)): > 75%

SMILES: C[C@@H]1N(c2ccc(C#N)c(Cl)c2)CCC12CCN(c1ccc(C(=O)N3CCC(CN4CCC5(CC4)COc4c5ccc5c4CN([C@H]4CCC(=O)NC4=O)C5=O)CC3)cc1)CC2 [ARD-2]
- Dmax (androgen receptor (AR)): > 75%

SMILES: N#Cc1ccc(O[C@H]2CC[C@H](NC(=O)c3ccc(N4CCC(CN5CCC6(CC5)COc5c6ccc6c5CN([C@H]5CCC(=O)NC5=O)C6=O)CC4)nn3)CC2)cc1Cl [ARD-3, N-((1r,4r)-4-(3-chloro-4-cyanophenoxy)cyclohexyl)-6-(4-((7-((S)-2,6-dioxopiperidin-3-yl)-6-oxo-7,8-dihydro-2H,6H-spiro[furo[2,3-e]isoindole-3,4′-piperidin]-1′-yl)methyl)piperidin-1-yl)pyridazine-3-carboxamide]
- Dmax (androgen receptor (AR)): > 75%

SMILES: CN(c1ccc(C#N)c(Cl)c1)[C@H]1CC[C@H](NC(=O)c2ccc(N3CCC(CN4CCC5(CC4)COc4c5ccc5c4CN([C@H]4CCC(=O)NC4=O)C5=O)CC3)nn2)CC1 [ARD-4, N-((1r,4r)-4-((3-chloro-4-cyanophenyl)(methyl)amino)cyclohexyl)-6-(4-((7-((S)-2,6-dioxopiperidin-3-yl)-6-oxo-7,8-dihydro-2H,6H-spiro[furo[2,3-e]isoindole-3,4′-piperidin]-1′-yl)methyl)piperidin-1-yl)pyridazine-3-carboxamide]
- Dmax (androgen receptor (AR)): > 75%

SMILES: COc1cc(-c2cn(C)c(=O)c3cnc(N4CCC4)cc23)cc(OC)c1C(=O)N1CCC2(CCC(CN3CCC4(CC3)COc3c4ccc4c3CN(C3CCC(=O)NC3=O)C4=O)CC2)CC1 (stereo not drawn) [BRD-1, 3-(1′-((3-(4-(6-(azetidin-1-yl)-2-methyl-1-oxo-1,2-dihydro-2,7-naphthyridin-4-yl)-2,6-dimethoxybenzoyl)-3-azaspiro[5.5]undecan-9-yl)methyl)-6-oxo-6,8-dihydro-2H,7H-spiro[furo[2,3-e]isoindole-3,4′-piperidin]-7-yl)piperidine-2,6-dione]
- Dmax (BRD9): > 90%
- DC50 (BRD9): < 10 nM

SMILES: COc1cc(-c2cn(C)c(=O)c(C)c2C)cc(OC)c1C(=O)N1CCC2(CCC(CN3CCC4(CC3)COc3c4ccc4c3C(=O)N(C3CCC(=O)NC3=O)C4=O)CC2)CC1 (stereo not drawn) [BRD-2, 1′-((3-(2,6-dimethoxy-4-(1,4,5-trimethyl-6-oxo-1,6-dihydropyridin-3-yl)benzoyl)-3-azaspiro[5.5]undecan-9-yl)methyl)-7-(2,6-dioxopiperidin-3-yl)-7-hydro-2H,6H-spiro[furo[2,3-e]isoindole-3,4′-piperidine]-6,8-dione]
- Dmax (BRD9): > 90%
- DC50 (BRD9): 10 to 100 nM

SMILES: O=C1CCC(N2Cc3c(ccc4c3OCC43CCNCC3)C2=O)C(=O)N1 (stereo not drawn) [Compound B1, 3-(6-oxo-6,8-dihydro-2H,7H-spiro[furo[2,3-e]isoindole-3,4′-piperidin]-7-yl)piperidine-2,6-dione]
- IC50 [1]: 1000 nM
